# Test results from US11065235B2, “Substituted methanopyrido [2, 1-a] isoindolones as mAChR modulators for treating various associated pathophysiological conditions and process for preparation thereof” (COUNCIL OF SCIENTIFIC & INDUSTRIAL RESEARCH, priority 2017, dated 2021).
# “Also recorded” adds a separate entry of the source. Like-named read-outs stand apart in the source and are kept apart here.
# What was measured:
# human M3R = molecular target: T1, human M3R (Homo sapiens, UniProt P20309); assay: NFAT-luciferase assay, M3; assay type: cell-based
# T1 construct: expressed in transfected cells; host or cells: HEK-293T
# T1 sequence (P20309 whole entry): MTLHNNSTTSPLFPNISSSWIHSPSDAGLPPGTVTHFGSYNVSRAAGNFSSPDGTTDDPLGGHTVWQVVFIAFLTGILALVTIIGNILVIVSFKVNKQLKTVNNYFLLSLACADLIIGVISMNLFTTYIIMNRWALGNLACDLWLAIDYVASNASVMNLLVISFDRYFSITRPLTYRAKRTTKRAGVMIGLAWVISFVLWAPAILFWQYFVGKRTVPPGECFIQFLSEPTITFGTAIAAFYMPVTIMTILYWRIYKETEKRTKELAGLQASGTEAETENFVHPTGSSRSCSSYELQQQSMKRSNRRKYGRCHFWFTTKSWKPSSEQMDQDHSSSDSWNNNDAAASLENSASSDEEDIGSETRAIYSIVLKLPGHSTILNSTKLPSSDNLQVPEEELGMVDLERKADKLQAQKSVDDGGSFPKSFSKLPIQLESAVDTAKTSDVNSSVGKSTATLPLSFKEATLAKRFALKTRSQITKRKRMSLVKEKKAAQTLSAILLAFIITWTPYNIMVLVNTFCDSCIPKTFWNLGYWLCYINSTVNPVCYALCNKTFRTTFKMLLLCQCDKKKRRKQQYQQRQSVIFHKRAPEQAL
# Experimental: (§1) To measure the agonist or antagonist activity at M1, M3 and M5 muscarinic receptor, NFAT-luciferase activity was performed in HEK-293T cells (procured from NCCS, Pune) by co-transfecting with human M1R or M3R or M5R and pGL4.30 (luc2P/NFAT-RE/Hygro; Promega Corp,) in 96 well format. The transfected cells were incubated at 37° C. in tissue culture incubator with 5% CO2 for 14-16 hours. To determine the if the test compounds are agonist, the transfected cells were treated with either 20 μl/well of carbamoyl choline (as a positive control) at various concentrations (10000 nM to 0.01 nM) or with various concentrations of test compounds (in triplicates) and were further incubated for 12 hrs in a humidified tissue culture incubator at 37° C. with 5% CO2. For antagonist mode assay, test compound incubation was followed by addition of 20 μl of 7 μM carbamoylcholine (agonist) to the plate. Following 12-14 hrs of drug treatment, media from the plate was aspirated and 100 μl of sodium luciferin solution (10 mg/ml) was added and luminescence per well was recorded using luminescence plate reader (BMG Labtech).
# human M1R = molecular target: T2, human M1R (Homo sapiens, UniProt P11229); assay: NFAT-luciferase assay, M1; assay type: cell-based
# T2 construct: expressed in transfected cells; host or cells: HEK-293T
# T2 sequence (P11229 1-460): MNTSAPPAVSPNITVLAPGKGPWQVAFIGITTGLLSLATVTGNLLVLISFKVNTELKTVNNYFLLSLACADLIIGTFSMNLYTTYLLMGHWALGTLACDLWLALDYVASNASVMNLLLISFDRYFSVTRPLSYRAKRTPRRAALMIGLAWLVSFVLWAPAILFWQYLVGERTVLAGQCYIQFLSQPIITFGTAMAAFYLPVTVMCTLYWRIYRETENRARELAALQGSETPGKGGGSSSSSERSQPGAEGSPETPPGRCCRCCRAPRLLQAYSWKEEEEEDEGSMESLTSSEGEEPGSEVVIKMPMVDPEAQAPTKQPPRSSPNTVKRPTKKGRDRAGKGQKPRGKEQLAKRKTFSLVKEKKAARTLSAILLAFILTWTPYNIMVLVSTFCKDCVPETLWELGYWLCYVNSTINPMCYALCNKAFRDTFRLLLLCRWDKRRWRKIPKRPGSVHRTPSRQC
# Experimental: as §1
# human M5R = molecular target: T3, human M5R (Homo sapiens, UniProt P08912); assay: NFAT-luciferase assay, M5; assay type: cell-based
# T3 construct: expressed in transfected cells; host or cells: HEK-293T
# T3 sequence (P08912 1-532): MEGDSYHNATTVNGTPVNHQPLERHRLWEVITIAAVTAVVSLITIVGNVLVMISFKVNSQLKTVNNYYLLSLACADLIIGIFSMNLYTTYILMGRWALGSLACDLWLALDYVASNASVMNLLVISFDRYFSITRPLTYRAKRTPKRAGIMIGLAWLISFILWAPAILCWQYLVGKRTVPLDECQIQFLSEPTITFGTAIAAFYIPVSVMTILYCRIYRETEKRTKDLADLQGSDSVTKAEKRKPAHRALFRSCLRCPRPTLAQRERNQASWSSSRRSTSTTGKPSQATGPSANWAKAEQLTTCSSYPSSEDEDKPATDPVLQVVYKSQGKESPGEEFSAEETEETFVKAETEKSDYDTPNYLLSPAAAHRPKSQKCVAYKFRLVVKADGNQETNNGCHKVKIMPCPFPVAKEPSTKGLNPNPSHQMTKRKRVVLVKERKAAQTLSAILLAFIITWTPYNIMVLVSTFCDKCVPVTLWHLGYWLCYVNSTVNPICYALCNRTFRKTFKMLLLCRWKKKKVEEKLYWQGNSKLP
# Experimental: as §1
# C57BL/6 mice = assay: Locomotor activity in open field arena; assay type: in vivo; conditions: 10 mg/kg i.p., acute, 60 minutes following injection, vs vehicle, p<0.05
# From the text: (§2) All animal experiments and procedures were executed in accordance with the guidelines established in the guide for the care and use of laboratory animals and were approved by the institutional animal ethics committee (IAEC) of CSIR-Central Drug Research Institute, Lucknow, India. In this study, male C57BL/6J mice (6-8 weeks old) weighing 22-25 g were used. They were housed on a 12-h light/dark cycle (lights on at 8.00 am) and food and water were provided ad libitum. Animals were acclimatized to the experimental room 30 minutes prior to the beginning of behavioral procedures. For experimental purpose, animals were randomly divided into four groups: vehicle, RG-02, scopolamine and scopolamine along with RG-02. In scopolamine along with RG-02 group, RG-02 (10 mg/kg, i.p) was injected thirty minutes prior to the scopolamine (0.5 mg/kg, i.p.) injections.
# Locomotor activity was tested according to the previously published protocol (Kelly et al, 1998) with slight modifications. Briefly, mice were put in the centre of a clear Plexiglas (40×40×30 cm) open-field arena and were allowed to explore the entire arena for 30 minutes. After 30 minutes of exploration, animals were injected with either RG-02 (10 mg/kg; i.p.) or 0.9% normal saline and were allowed to explore the arena for further 60 minutes. […]
# [1] = system: Scopolamine induced memory deficit; assay: Novel object recognition (NOR) test, scopolamine induced memory deficit; assay type: in vivo, mice; conditions: RG-02 10 mg/kg i.p. + scopolamine 0.5 mg/kg i.p., 7th day
# From the text: as §2
# The NOR test was performed according to the protocol introduced by Ennaceur and Delacour (Ennaceur & Delacour, 1988) with slight modification.
# The NOR task procedure consisted of three sessions—[…], familiarization and test session. During habituation session, the mouse was placed in an open field (Square box of 40×40×40 cm), facing the wall of the arena, and allowed to explore the entire arena for 10 minutes. Following habituation period of 10 minutes, the mouse was returned to its home cage.
# Between every […] session, the whole arena was cleaned with 10% ethanol to reduce olfactory cues. […] During this session, the test animal was placed in the arena and was allowed to explore the entire arena with familiar and novel object, and its activity was also video recorded. To determine the retention of object memory, the recorded videos of test session were analyzed by independent observer who was unknown to treatment of mice to calculate the time spent in exploring both objects. Data are presented as % time of exploration of familiar or novel object, and discrimination index was calculated as per following equation: (Tn−Tf)/Tt: Discrimination Index […]
# human M2R = molecular target: T4, human M2R (Homo sapiens, UniProt P08172); assay: GloSensor cAMP assay (Gi-mediated cAMP inhibition); assay type: cell-based; conditions: for IC50: agonist
# T4 construct: expressed in transfected cells; host or cells: HEK-293T
# T4 sequence (P08172 1-466): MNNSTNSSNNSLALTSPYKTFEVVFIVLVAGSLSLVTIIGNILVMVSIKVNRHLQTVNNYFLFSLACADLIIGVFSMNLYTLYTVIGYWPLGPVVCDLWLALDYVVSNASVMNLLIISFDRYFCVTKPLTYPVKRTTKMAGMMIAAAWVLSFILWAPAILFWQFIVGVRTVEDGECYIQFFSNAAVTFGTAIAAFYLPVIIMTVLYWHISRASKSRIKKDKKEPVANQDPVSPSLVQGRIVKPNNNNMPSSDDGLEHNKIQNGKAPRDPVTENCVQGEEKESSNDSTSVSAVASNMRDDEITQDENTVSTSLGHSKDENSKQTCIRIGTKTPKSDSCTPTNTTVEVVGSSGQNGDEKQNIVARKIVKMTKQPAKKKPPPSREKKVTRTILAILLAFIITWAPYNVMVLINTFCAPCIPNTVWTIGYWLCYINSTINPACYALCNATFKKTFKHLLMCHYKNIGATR
# Experimental: To measure M2 muscarinic receptor induced (Gi-mediated) cAMP inhibition, HEK-293T cells (procured from NCCS, Pune) were co-transfected with human M2R and luciferase based cAMP biosensor (pGloSensor™-22F plasmid; Promega) using PEImax method of transfection in the ratio of 1:1. The transfected cells were incubated at 37° C. in tissue culture incubator with 5% CO2 for 14-16 hours. For GloSensor cAMP assay, after overnight incubation, media from the plate was aspirated and 100 μl of sodium luciferin solution in drug buffer (1×HBSS (pH7.4) and 20 mM HEPES) was added to the cell plates. The plates were then incubated at 37° C. in tissue culture incubator with 5% CO2 for 90 minutes. After incubation, cells were treated with 20 μl of 6× diluted standard carbamoyl choline (10000 nM to 0.01 nM) along with test compounds (in triplicates) and were incubated in a humidified tissue culture incubator at 37° C. with 5% CO2 for 10-15 minutes to get a steady state condition. Ligand incubation was followed by addition of 20 μl of 7×(70 μM) forskoline (FSK) to the plate. FSK incubation was followed by incubation at 37° C. for 10-15 minutes and measurement of luminescence per well using luminescence plate reader (BMG Labtech). The results were plotted as inhibition of FSK stimulated cAMP response (relative luminescence units) using nonlinear regression analysis by Graph-Pad prism V.
# [2] = system: Scopolamine induced memory deficit; assay: Morris water maze (MWM) test, scopolamine induced learning deficit; assay type: in vivo, mice
# From the text: as §2
# The Morris water maze (MWM) test was performed according to Morris 1984, with slight modifications. Circular pool of dimensions-100 cm diameter and 45 cm depth, which was filled up to 25 cm from bottom with white colour water. Temperature of water was adjusted to 24-25° C. Pool was divided into four quadrants and a square platform of 10×10 cm in was placed into the tank at a fixed location in the centre of one of the four imaginary quadrants. Training sessions were conducted for 3 consecutive days and on 4th day a probe trial was performed. During training session, mouse was gently placed into the water facing the edge of the pool of one of the quadrant. If the mouse was able to find the platform before the 60 sec cut-off, it was allowed to stay over the platform for 5 more seconds followed by returning to its home cage. […] Total three trials/day were run for each mouse with minimum interval of 10-15 minutes between two trials, and latency to reach the platform was calculated. On the fourth day, for the probe trial, the platform was removed and the time spent in respective quadrant was calculated.
antagonist activity at M3 receptor (in words) (human M3R),antagonist activity at M1 receptor (in words) (human M1R),"IC50 (human M1R; M1, antagonist, N.A. = not active, read-out: pIC50/pEC50 (Mean ± SEM) M1 (converted)) [nM]",antagonist activity at M5 receptor (in words) (human M5R),"IC50 (human M5R; M5, antagonist, N.A. = not active, read-out: pIC50/pEC50 (Mean ± SEM) M5 (converted)) [nM]",SMILES,"selectivity among muscarinic receptors (in words) (human M3R; M1, M3 and M5 antagonist profiling)",locomotor activity (total horizontal distance travelled) (C57BL/6 mice),percent time exploration for novel object ([1]; vs scopolamine alone / vehicle),"novel object discrimination index ([1]; vs scopolamine alone, p<0.05)",agonist activity at M2 receptor (in words) (human M2R),"IC50 (human M2R; M2, N.A. = not active, read-out: pIC50/pEC50 (Mean ± SEM) M2 (converted)) [nM]",IC50 (human M2R; read-out: IC50 at M2 receptor) [nM],"time spent in platform quadrant (probe trial) ([2]; RG-02 10 mg/kg i.p. + scopolamine 0.5 mg/kg i.p., day 4, vs scopolamine alone)","learning the location of hidden platform ([2]; RG-02 alone 10 mg/kg i.p., vs vehicle)"
very modest activity,very modest activity,129,very modest activity,269,"O=C1[C@@H]2c3ccccc3[C@H]3N2[C@@H]2CCCC(OS(=O)(=O)C(F)(F)F)=C2C[C@@]13S(=O)(=O)c1ccccc1 [RG-12, (6S,6aR,11S,12aR)-13-oxo-6-(phenylsulfonyl)-1,2,3,5,6,6a,11,12a-octahydro-6,11-methanoisoindolo[2,1-a]quinolin-4-yl trifluoromethanesulfonate]",nonselective muscarinic receptor antagonist,–,–,–,–,–,–,–,–
–,–,–,–,–,"O=C1CCC[C@@H]2[C@@H]1C[C@@]1(S(=O)(=O)c3ccccc3)C(=O)[C@@H]3c4ccccc4[C@H]1N32 [RG-02, (4aS,6S,6aR,11S,12aR)-6-(phenylsulfonyl)-1,2,3,4a,5,6,6a,12a-octahydro-6,11-methanoisoindolo[2,1-a]quinoline-4,13(11H)-dione]",–,significantly increased locomotor activity; also recorded: neurostimulatory effect; also recorded: significant increase in locomotor activity,significantly increased,significantly blocked the negative effect of scopolamine on novel object discrimination; also recorded: significantly increased,most potent agonist at M2 receptor; also recorded: selective M2 muscarinic receptor agonist with high activity,4.17,4,increased the time spent in the quadrant with platform; also recorded: significantly increased,no per se effect
